This note sets out measurements from patent US20220195360A1, “Additive Manufacturing of Functional Myocardial Tissue” (The United States of America, as represented by the …, priority 2017, published 2022).

The structures appear in SMILES notation. Read-outs that look alike come from different tables or passages of the source.

Type in all cases: cell-based
Series [1] concerns neonatal rat cardiomyocytes. To be noted: 6 day. How it is done: For testing of the systems and methods according to several embodiments, neonatal rat cardiomyocytes were seeded following the formation of a layer of confluent endothelium at the peripheries the microfibers of the scaffolds, which generally occurred in 15 days. Freshly isolated cardiomyocytes were suspended in DMEM at a final concentration of 1×10^6 cells m/L. The scaffolds were individually placed on top of a thin layer of hydrophobic polydimethylsiloxane (PDMS). Approximately 40 μL of cell suspension was dropped to cover each scaffold, and incubated at 37° C. for 2 hours, to allow the cardiomyocytes to adhere onto the microfibers. […]
Live/Dead staining was performed according to the manufacturer's instructions (THERMO FISHER®). Beating of the cardiomyocytes was observed using an optical microscope and analyzed using custom-coded MATLAB programs, as known in the prior art. […] The levels of secreted vWF were measured by an ELISA kit (ab189571) by ABCAM®. […]
(§1) For example, the endothelialized-myocardium-on-a-chip model can be used to assess treatment by a common anti-cancer drug, doxorubicin. Unlike other pre-existing models, where only individual cell types were typically included, doxorubicin elicited dose-dependent responses towards both cardiomyocytes and endothelial cells when assessed using the systems and methods of several embodiments.

In series [2] the test system is endothelial cells (HUVECs). As to the kind of experiment: vWF expression by the endothelial component of the endothelialized-human-myocardium-on-a-chip. To be noted: different doses, human model (FIG. 8D) compared with rat model (FIG. 7D). As to the method: (§2) Both bioink 26 and CaCl2) solutions can be maintained at 37° C. before use. HUVECs can be re-suspended in the bioink at a concentration of 1×10^7 cells/mL. Following the bioprinting and the subsequent crosslinking processes, the constructs can be washed with PBS to remove excess CaCl2). After washing, the constructs can be cultured in endothelial cell growth medium (EGM) at 37° C. and 5% CO2 volume throughout a period of up to 33 days. The EGM/CO2 medium can be changed twice in the first day and then every 2 days thereafter.
(§3) Live/Dead staining was performed according to the manufacturer's instructions (THERMO FISHER®). Beating of the cardiomyocytes was observed using an optical microscope and analyzed using custom-coded MATLAB programs, as known in the prior art. Monitoring of the beating behavior was performed every day until contractions were no longer observed. […] The levels of secreted vWF were measured by an ELISA kit (ab189571) by ABCAM®.
(§4) The same procedures for fabricating the vascular beds using bioprinted microfibrous scaffolds as described above were used, but hiPSC-cardiomyocytes were subsequently seeded instead of the neonatal rat cells. […] The human-derived myocardial organoids seemed to have slightly lower endurance at all of the time points analyzed in comparison to those of rat origin (FIG. 8C versus FIG. 7C). […]

The subject of series [3] is endothelial cells (HUVECs). To be noted: human, 6 day. As to the method: as §2, §3, §1
Series [4] has as its system hiPSC-cardiomyocytes. To be noted: human. How it is done:
The seeding of hiPSC-cardiomyocytes can follow the same procedure that is described above for neonatal rat cardiomyocytes, except that a Roswell Park Memorial Institute (RPMI)-1640 medium containing 1×B27 supplements (by GIBCO®) can be used for culturing. Other choices in the prior art that are known for culturing cardiomyocytes might also be possible.
as §3, §4

In the case of `COc1cccc2c1C(=O)c1c(O)c3c(c(O)c1C2=O)C[C@@](O)(C(=O)CO)C[C@@H]3O[C@H]1C[C@H](N)[C@H](O)[C@H](C)O1` [doxorubicin], the results for the “relative beating rate of the cardiomyocytes” value in series [1] (10 μM) and in series [1] (100 μM) were 70.5% and 1.62%, respectively. In series [2], the “toxicity on the endothelial component of the constructs (vWF expression)” value is given as “corresponded well with that observed for the rat myocardial organoids”. In addition, the “levels of von Willebrand factor (vWF) secreted by the endothelial cells” value is recorded as 76.0% in series [3] (10 μM) and 35.3% in series [3] (100 μM). For the same molecule, the “relative beating of the hiPSC-cardiomyocytes” value in series [4] (10 μM) came to 66.0%; in series [4] (100 μM) it was 2.78%.
